Assay results from US20240262795A1, “PYRAZINE COMPOUNDS AS INHIBITORS OF FLT3” (Biomea Fusion, Inc., priority 2021, published 2024).

Key:
Type in all cases: cell-based, human
MOLM-13 = assay: Proliferation inhibition, CellTiter-Glo, MOLM-13; conditions: Homo sapiens, 96 h; MOLM-13 cells, IC50 (4 days), CellTiter-Glo; read-out: MOLM-13 IC50
Description: (§1) The proliferation inhibitory effect was investigated in human AML cell lines MOLM-13 (AddexBio: C0003003) and MV-4-11 (ATCC: CRL-9591), and CML cell line […] (ATCC: CRL-3343). Molm-13 is heterozygous for FLT3-ITD mutation, while MV4-11 is homozygous for FLT3-ITD (Quentmeier H, et al., Leukemia. 17(1):120-4). […] Cells were maintained in RPMI-1640 medium (ThermoFisher catalog no. 61870036) supplemented with 10% of Heat Inactivated FBS (ThermoFisher catalog no. A31605) and 1% Pen-Strep (ThermoFisher catalog no. 10378016) and cultured at 37° C. in a humidified incubator with 5% CO2. Cell lines were grown by […], and the cells were maintained in a range 70%-80% confluency.
(§2) ATP is present in all metabolically active cells and is considered as a marker for cell viability and proliferation. Metabolic cell activity was determined using the CellTiter-Glo kit (Promega catalog no. G7572), an ATP monitoring system based on the production of luminescence by the reaction of ATP with added UltraGlo® recombinant luciferase (Kawano et al., 2016, PLOS One, 8; 11(7):e0158888), according to the supplier's experimental recommendations. The assay was based on a 96 well plate format.
(§3) Test compounds were dissolved at 10 mM in DMSO (Sigma catalog no. D8418; purity≥99.9%) and stored at −20° C. Eight concentrations of test compound were assessed in duplicate in an individual test occasion in parallel in the selected cell lines. Gilteratinib and FF-10101 were used as reference compounds and tested in duplicate at eight concentrations. 100% of proliferation is represented by the untreated cells (0.2% DMSO).
(§4) On the day of the experiment, cells were quantified with the cell viability analyzer NucleoCounter (Chemometec NC-200) and diluted with fresh medium to obtain the cell density of about 10,000 cells per 200 μL medium. 200 μL of cell suspension were added into wells in the 96 well plate.
(§5) After 2 hours from seeding cells, compounds at desired concentrations were added using a D300e compound dispenser (Life Sciences Tecan D300) with shaking between each compound dispensed. Assay plates were incubated at 37° C. in a humidified incubator with 5% CO2.
(§6) On day 4 (˜96 hrs after compound addition) assay plates were equilibrated at room temperature for approximately 15 min, and then 40 μL/well of the Promega CellTiterGlo® reagent was added. Contents were mixed for 5 min on an orbital shaker to promote cell lysis, and then incubated at room temperature for an additional 10 min in the dark to stabilize the luminescent signal. Luminescence was read by using a GloMlax GM300 plate reader (Promega) using the luminescence for 96 well plate standard protocol.
(§7) Results were analyzed by GraphPad (Prism) and IC50 values were calculated by non-linear regression using four parameter-logistic equation.

K-562 = assay: Proliferation inhibition, CellTiter-Glo, K-562; conditions: Homo sapiens, K562, 96 h; K-562 cells, IC50 (4 days), CellTiter-Glo; read-out: K-562 IC50
Description: as §1, §2, §3, §4, §5, §6, §7

MV-4-11 = assay: Proliferation inhibition, CellTiter-Glo, MV-4-11; conditions: Homo sapiens, MV4-11, 96 h; MV-4:11 cells, IC50 (4 days), CellTiter-Glo; read-out: MV-4:11 IC50
Description: as §1, §2, §3, §4, §5, §6, §7

Row | Structure (SMILES) | IC50 (MOLM-13) | IC50 (K-562) | IC50 (MV-4-11)
1 | C=CC(=O)N(C)CC(=O)NC[C@H](C)c1cccc(Nc2nc(CC(C)C)c(CC)nc2C(N)=O)c1 [Compound 512, (R)-6-ethyl-5-isobutyl-3-((3-(1-(2-(N-methylacrylamido)acetamido)propan-2-yl)phenyl)amino) pyrazine-2-carboxamide] | > 0.5 µM | > 0.5 µM | 0.01 to 0.1 µM
2 | CC#CC(=O)N(C)[C@@H](C)C(=O)NCCc1cccc(Nc2nc(C3CC3)c(CC)nc2C(N)=O)c1 [Compound 209, 3-[3-[2-[[(2S)-2-[but-2-ynoyl(methyl)amino]propanoyl]amino]ethyl]anilino]-5-cyclopropyl-6-ethyl-pyrazine-2-carboxamide] | 0.01 to 0.1 µM | > 0.5 µM | 0.001 to 0.01 µM
3 | CCc1nc(C(N)=O)c(Nc2cc(CCNC(=O)[C@H](C)N(C)C(=O)/C=C/CN(C)C)ccn2)nc1C1CC1 [Compound 304, 5-cyclopropyl-3-[[4-[2-[[(2S)-2-[[(E)-4-(dimethylamino)but-2-enoyl]-methyl-amino]propanoyl]amino]ethyl]-2-pyridyl]amino]-6-ethyl-pyrazine-2-carboxamide] | 0.1 to 0.5 µM | > 0.5 µM | 0.1 to 0.5 µM
4 | CCc1nc(C(N)=O)c(Nc2cccc([C@H](C)CNC(=O)CN(C)C(=O)/C=C/CN(C)C)c2)nc1C [Compound 324, (S,E)-3-((3-(1-(2-(4-(dimethylamino)-N-methylbut-2-enamido)acetamido)propan-2-yl)phenyl)amino)-6-ethyl-5-methylpyrazine-2-carboxamide] | 0.1 to 0.5 µM | > 0.5 µM | 0.01 to 0.1 µM
5 | CCc1nc(C(N)=O)c(Nc2cccc(CCNC(=O)[C@H](C)N(C)C(=O)/C=C/CN(C)C)c2)nc1C [Compound 142A, (S,E)-3-((3-(2-(2-(4-(dimethylamino)-N-methylbut-2-enamido)propanamido)ethyl)phenyl)amino)-6-ethyl-5-methylpyrazine-2-carboxamide] | 0.001 to 0.01 µM | > 0.5 µM | 0.001 to 0.01 µM
6 | C=CC(=O)N(C)[C@@H](C)C(=O)NCCc1cccc(Nc2nc(N(C)CC)c(C)nc2C(N)=O)c1 [Compound 225, 5-[ethyl(methyl)amino]-6-methyl-3-[3-[2-[[(2S)-2-[methyl(prop-2-enoyl)amino]propanoyl]amino]ethyl]anilino]pyrazine-2-carboxamide] | 0.01 to 0.1 µM | > 0.5 µM | 0.001 to 0.01 µM
7 | CCc1nc(C(N)=O)c(Nc2cccc(CCNC(=O)[C@H](C)N(C)C(=O)/C=C/CN3CCC3)c2)nc1C [Compound 202, (S,E)-3-((3-(2-(2-(4-(azetidin-1-yl)-N-methylbut-2-enamido)propanamido)ethyl)phenyl)amino)-6-ethyl-5-methylpyrazine-2-carboxamide] | 0.001 to 0.01 µM | > 0.5 µM | 0.001 to 0.01 µM
8 | CCc1nc(C(N)=O)c(Nc2ccnc(CCNC(=O)CN(C)C(=O)/C=C/CN3CCC3)c2)nc1CC(C)C [Compound 604, (E)-3-((2-(2-(2-(4-(azetidin-1-yl)-N-methylbut-2-enamido)acetamido)ethyl)pyridin-4-yl)amino)-6-ethyl-5-isobutylpyrazine-2-carboxamide] | 0.001 to 0.01 µM | > 0.5 µM | < 0.001 µM
9 | [2H]C([2H])([2H])N(C/C=C/C(=O)N(C)[C@@H](C)C(=O)NCCc1cccc(Nc2nc(NC(C)C)c(CC)nc2C(N)=O)c1)C([2H])([2H])[2H] [Compound 505, (S,E)-3-((3-(2-(2-(4-(bis(methyl-d3)amino)-N-methylbut-2-enamido)propanamido)ethyl)phenyl)amino)-6-ethyl-5-(isopropylamino)pyrazine-2-carboxamide] | – | > 0.5 µM | –
10 | Cc1nc(C(N)=O)c(Nc2cccc(CCNC(=O)C(C)N(C)C(=O)/C=C/CN(C)C)c2)nc1C1CC1 (stereo not drawn) [Compound 211, 5-cyclopropyl-3-[3-[2-[2-[[(E)-4-(dimethylamino)but-2-enoyl]-methyl-amino]propanoylamino]ethyl]anilino]-6-methyl-pyrazine-2-carboxamide] | 0.01 to 0.1 µM | > 0.5 µM | 0.001 to 0.01 µM
11 | CCc1nc(C(N)=O)c(Nc2cccc(CCNC(=O)[C@H](C)N(C)C(=O)/C=C/CNC)c2)nc1C [Compound 227, (S,E)-6-ethyl-5-methyl-3-((3-(2-(2-(N-methyl-4-(methylamino)but-2-enamido)propanamido)ethyl)phenyl)amino)pyrazine-2-carboxamide] | 0.001 to 0.01 µM | > 0.5 µM | 0.001 to 0.01 µM
12 | Cc1nc(Nc2cc(F)cc(CCNC(=O)CN(C)C(=O)/C=C/CN(C)C)c2)c(C(N)=O)nc1C [Compound 251, 3-[3-[2-[[2-[[(E)-4-(dimethylamino)but-2-enoyl]-methyl-amino]acetyl]amino]ethyl]-5-fluoro-anilino]-5,6-dimethyl-pyrazine-2-carboxamide] | 0.01 to 0.1 µM | > 0.5 µM | 0.001 to 0.01 µM
13 | Cc1nc(C(N)=O)c(Nc2cccc(CCNC(=O)[C@H](C)N(C)C(=O)/C=C/CN3CCC3)c2)nc1C1CC1 [Compound 242, (S,E)-3-((3-(2-(2-(4-(azetidin-1-yl)-N-methylbut-2-enamido)propanamido)ethyl)phenyl)amino)-5-cyclopropyl-6-methylpyrazine-2-carboxamide] | 0.001 to 0.01 µM | > 0.5 µM | 0.001 to 0.01 µM
14 | Cc1nc(Nc2cccc(CCNC(=O)[C@H](C)N(C)C(=O)/C=C/CN(C)C)c2)c(C(N)=O)nc1C [Compound 207, 3-[3-[2-[[(2S)-2-[[(E)-4-(dimethylamino)but-2-enoyl]-methyl-amino]propanoyl]amino]ethyl]anilino]-5,6-dimethyl-pyrazine-2-carboxamide] | 0.01 to 0.1 µM | > 0.5 µM | 0.01 to 0.1 µM
15 | [2H]C([2H])([2H])N(C/C=C/C(=O)N(C)[C@@H](C)C(=O)NCCc1cccc(Nc2nc(C3CC3)c(C)nc2C(N)=O)c1)C([2H])([2H])[2H] [Compound 248, (S,E)-3-((3-(2-(2-(4-(bis(methyl-d3)amino)-N-methylbut-2-enamido)propanamido)ethyl)phenyl)amino)-5-cyclopropyl-6-methylpyrazine-2-carboxamide] | 0.001 to 0.01 µM | > 0.5 µM | 0.001 to 0.01 µM
16 | CCc1nc(C(N)=O)c(Nc2cccc(CCNC(=O)C3(N(C)C(=O)/C=C/CN(C)C)CC3)c2)nc1C [Compound 223, 3-[3-[2-[[1-[[(E)-4-(dimethylamino)but-2-enoyl]-methyl-amino]cyclopropanecarbonyl]amino]ethyl]anilino]-6-ethyl-5-methyl-pyrazine-2-carboxamide] | 0.01 to 0.1 µM | > 0.5 µM | 0.001 to 0.01 µM
17 | CCc1nc(C(N)=O)c(Nc2cccc(CCNC(=O)[C@H](C)N(C)C(=O)C#CCN(C)C)c2)nc1C [Compound 244, (S)-3-((3-(2-(2-(4-(dimethylamino)-N-methylbut-2-ynamido)propanamido)ethyl)phenyl)amino)-6-ethyl-5-methylpyrazine-2-carboxamide] | 0.001 to 0.01 µM | > 0.5 µM | < 0.001 µM
18 | CCc1nc(C(N)=O)c(Nc2cccc(C[C@H](C)NC(=O)CN(C)C(=O)/C=C/CN(C)C)c2)nc1C [Compound 312, 3-[3-[(2S)-2-[[2-[[(E)-4-(dimethylamino)but-2-enoyl]-methyl-amino]acetyl]amino]propyl]anilino]-6-ethyl-5-methyl-pyrazine-2-carboxamide] | 0.1 to 0.5 µM | > 0.5 µM | 0.01 to 0.1 µM
19 | Cc1cc(C(N)=O)c(Nc2cncc(CCNC(=O)[C@H](C)N(C)C(=O)/C=C/CN(C)C)c2)nc1C1CC1 [Compound 323, (S,E)-6-cyclopropyl-2-((5-(2-(2-(4-(dimethylamino)-N-methylbut-2 enamido)propanamido)ethyl)pyridin-3-yl)amino)-5-methylnicotinamide] | 0.1 to 0.5 µM | – | 0.01 to 0.1 µM
